Source: US20060264497A1, “Diindolylmethane-based compositions and methods of use thereof for promoting oral mucosal and bone health” (priority 2005, published 2006)
Marks after values point to notes of the source that are not given here.

Columns and labels:
[1] = tested on: osteoclasts in metaphyseal bone; assay: Bone histomorphometry: osteoclast number after one year feeding of DIM or I3C; assay type: in vivo, rats; conditions: 1 year; for Osteoclast Cell Number in Metaphyseal Bone: DIM 20 mg/kg/day (BioResponse-DIM), I3C 50 mg/kg/day in diet
Method: A one year study was conducted including evaluation of the impact of chronic feeding of DIM and I3C versus control diet in rats. The study used a dose of 20 mg/kg/day DIM, formulated for increased absorption (BioResponse-DIM, BioResponse, Boulder, Colo. [Example 1]), and 50 mg/kg/day Indole-3-Carbinol (I3C) (Sigma Chemical, St. Louis, Mo.). Bone histomorphometry was performed comparing metaphyseal bone in male and female animals using established techiques (Huffer W E, Ruegg P, Zhu J M, Lepoff R B., Semiautomated methods for cancellous bone histomorphometry using a general-purpose video image analysis system. J Microsc. 1994 January; 173 (Pt 1):53-66). Counts of osteoclast number, averaged for male and female groups are summarized in the following chart: […]

[2] = tested on: mouse osteoclast-like multinucleated cells (OCLs); assay: Pit formation assay on dentine slices; conditions: 0.5-50 micromolar, 24 h and 48 h
Source text: Osteoblasts will be obtained from the calvariae of newborn ddY mice and bone marrow cells will be obtained from the tibiae of male mice and be cocultured in aMEM (Life Technologies, Grand Island, N.Y.) containing 10% FBS, 1α,25-dihydroxyvitamin D3 (10^−8 M) (Wako Pure Chemical, Osaka, Japan) and PGE2 (10^−6 M) (Sigma) in 100-mm-diameter dishes coated with collagen gels (Nitta Gelatin, Osaka). OCLs will be formed within 6 days in culture and will be removed from the dishes by treating with 0.2% collagenase (Wako). The purity of OCLs in this fraction (crude OCL preparation) will be about 5%. To further purify the OCLs, the crude OCL preparation will be replated on culture dishes. After further culture for 8 h, osteoblasts will be removed with PBS containing 0.001% pronase E (Calbiochem, La Jolla, Calif.) and 0.02% EDTA.
OCLs preparations (15,000 cells/0.1 ml/well) will be seeded on dentine slices (4-mm diameter) which had been placed in 96-well plates. […] Pit formation by OCls will be determined after culture for 24 h and 48 h. […] The numbers of pits on the slices will be counted. To quantitate pit-forming activity of OCLs, the areas of resorption lacunae will also be measured with an image analysis system (LA-525; PIAS Co., Tokyo). The results will be expressed as the percentage of resorbed area with respect to the whole surface area of a dentine slice.

rat bone osteoclasts = conditions: Gao and Yamaguchi 1999; cited from earlier work
[3] = cited from earlier work
[4] = Dissolution of DIM containing particles (release rate profile); assay type: physicochemical; conditions: pH 6.8 phosphate buffer, 0.5% Tween 80, 37° C., 50 rpm
Method: Testing of Dissolution of DIM Containing Particles: In order to determine the release rate profiles of DIM from matrix, particle formulations, a test using pH 6.8 phosphate buffer system containing 0.5% Tween 80 was utilized. The procedure included dissolving an amount of spray dried particles containing a known amount of DIM in a standard dissolution apparatus with standard simulated saliva solution. For the following testing, 900 ml of stock pH 6.8 buffer solution was placed into a round bottom beaker in the dissolution test apparatus. To the solution, 5 g of Tween 80 (Sorbitan Monooleate) was added and mixed while bringing to a temperature of 37° C. To this, 600 mg of a test sample with known DIM content was added to the solution and stirred at 50 rpm. At timed intervals 3.0 ml aliquots of solution was removed and filtered through 0.22 um filter. The absorption of the sample was read at 283 nm on an […], blanking vs. pH 6.8 buffer containing 0.5% Tween 80. The percent released DIM compared to the 100% complete, theoretical level was calculated.

[5] = Case report: DIM treatment of a subject with rheumatoid arthritis and gingivitis; assay type: in vivo, human; conditions: oral, subject with rheumatoid arthritis
Method: (§1) A person with a diagnosis of rheumatoid arthritis was referred for Diinolylmethane (DIM) treatment due to intolerance of oral Plaquenil®. […] They had diffuse small joint pain and elevated Rheumatoid Factor and Antinuclear Antigen serum titers. […] On probing, a total of 12 bleeding sites were documented. They began taking DIM (BioResponse-DIM 150, BioResponse, Boulder, Colo.) taking 50 mg of DIM twice daily.
as §1, with “daily. […] Subsequently they discontinued use of DIM and noted gradual return of painful swollen joints in their hands over 2 months.” for “daily.”

c1ccc2c(Cc3c[nH]c4ccccc34)c[nH]c2c1 [DIM, 3,3′-diindolylmethane]
Osteoclast Cell Number in Metaphyseal Bone ([1]; female rats): 14.3
Osteoclast Cell Number in Metaphyseal Bone ([1]; male rats): 9.3*
Change in osteoclast number versus I3C treated and control animals ([1]; rats): reduction in osteoclast number
Pit formation by OCLs (osteoclast function and survival) [2]: inhibition of pit formation

O=c1c(-c2ccc(O)cc2)coc2cc(O)cc(O)c12 [Genistein, 4′,5,7-trihydroxyisoflavone]
Potency of inhibiting the function of osteoclasts relative to daidzein (rat bone osteoclasts): about 10 times
Bone mineral density ([3]; 52 mg/day, year long clinical trial): failed to show any measurable improvement
Serum and urinary indicators of ongoing bone loss ([3]; 90 mg/day, clinical trial): failed to reduce

OCc1c[nH]c2ccccc12 [I3C, Indole-3-carbinol, reference compound]
Osteoclast Cell Number in Metaphyseal Bone ([1]; female rats): 18.3
Osteoclast Cell Number in Metaphyseal Bone ([1]; male rats): 14.3*

CC(C)Oc1ccc2c(=O)c(-c3ccccc3)coc2c1 [Ipriflavone, 3-phenyl-7-propan-2-yloxy-chromen-4-one]
Measures of bone health ([3]; 600 mg/day, 3 years of treatment, controlled trial): no significant improvement

c1ccc2c(Cc3c[nH]c4ccccc34)c[nH]c2c1 [Microcrystalline DIM, 3,3′-diindolylmethane]
Percent DIM Released from Particle ([4]; 0 minutes): 0%
Percent DIM Released from Particle ([4]; 15 minutes): 55.1%
Percent DIM Released from Particle ([4]; 30 minutes): 73.6%
Percent DIM Released from Particle ([4]; 45 minutes): 78.8%
Percent DIM Released from Particle ([4]; 60 minutes): 83.5%

CCN(CCO)CCCC(C)Nc1ccnc2cc(Cl)ccc12 (stereo not shown) [Plaquenil]
Tolerance (adverse effect) [5]: unacceptable dizziness
